Measurements as given in PMC6631999, “A Universal Photochemical Method to Prepare Carbohydrate Sensors Based on Perfluorophenylazide Modified Polydopamine for Study of Carbohydrate-Lectin Interactions by QCM Biosensor” (Polymers, 2019).

Tests used:
[1] = molecular target: T1, peanut agglutinin (PNA) (Arachis hypogaea, UniProt P02872); experiment: QCM biosensor frequency shift (Attana Cell-A200); type: binding; conditions: sugar photochemically immobilised on PFPA-polydopamine sensor; lectin 100 ug/mL; 10 mM PBS pH 7.4; BSA-blocked
T1 construct: native commercial plant lectin (Vector Laboratories), in solution
T1 sequence (P02872 24-273): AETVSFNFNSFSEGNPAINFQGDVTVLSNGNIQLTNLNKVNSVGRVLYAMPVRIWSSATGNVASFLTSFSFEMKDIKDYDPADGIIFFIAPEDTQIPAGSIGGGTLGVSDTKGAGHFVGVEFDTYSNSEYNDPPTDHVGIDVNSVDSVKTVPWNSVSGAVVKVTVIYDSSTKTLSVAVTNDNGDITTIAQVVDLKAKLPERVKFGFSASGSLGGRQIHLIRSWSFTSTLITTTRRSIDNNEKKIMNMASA

[2] = molecular target: T2, soybean agglutinin (SBA) (Glycine max, UniProt P05046); experiment: QCM biosensor frequency shift (Attana Cell-A200); type: binding
T2 construct: gene LE1; native commercial plant lectin (Vector Laboratories), in solution
T2 sequence (P05046 33-285): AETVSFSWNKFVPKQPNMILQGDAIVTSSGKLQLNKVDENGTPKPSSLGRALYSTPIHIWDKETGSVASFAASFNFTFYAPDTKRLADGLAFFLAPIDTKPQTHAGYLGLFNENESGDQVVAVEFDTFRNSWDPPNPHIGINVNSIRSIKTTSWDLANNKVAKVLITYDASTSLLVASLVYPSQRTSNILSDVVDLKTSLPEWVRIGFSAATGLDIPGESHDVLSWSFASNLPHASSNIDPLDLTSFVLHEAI

## OC[C@H]1OC(O)[C@H](O)[C@@H](O)[C@H]1O (some centres unmarked) [galactose]
[1]
  QCM biosensor frequency shift (Attana Cell-A200): both SBA and PNA can bind to galactose, but the binding strengths are different
[2]
  QCM biosensor frequency shift (Attana Cell-A200): SBA has the highest binding with galactose, followed by PNA
